Measured values reported in ChEMBL document CHEMBL1133790, “Heteroaryl and cycloalkyl sulfonamide hydroxamic acid inhibitors of matrix metalloproteinases” (Bioorg Med Chem Lett, 2001).
One block for each compound: values may come before it. The source made the active and inactive calls. The rule behind the calls is not given here.

What was measured:
[1] = target: T1, Interstitial collagenase (Homo sapiens) (UniProt P03956); experiment: Inhibition of Matrix metalloprotease-1 at 1 uM
T1 sequence (whole entry): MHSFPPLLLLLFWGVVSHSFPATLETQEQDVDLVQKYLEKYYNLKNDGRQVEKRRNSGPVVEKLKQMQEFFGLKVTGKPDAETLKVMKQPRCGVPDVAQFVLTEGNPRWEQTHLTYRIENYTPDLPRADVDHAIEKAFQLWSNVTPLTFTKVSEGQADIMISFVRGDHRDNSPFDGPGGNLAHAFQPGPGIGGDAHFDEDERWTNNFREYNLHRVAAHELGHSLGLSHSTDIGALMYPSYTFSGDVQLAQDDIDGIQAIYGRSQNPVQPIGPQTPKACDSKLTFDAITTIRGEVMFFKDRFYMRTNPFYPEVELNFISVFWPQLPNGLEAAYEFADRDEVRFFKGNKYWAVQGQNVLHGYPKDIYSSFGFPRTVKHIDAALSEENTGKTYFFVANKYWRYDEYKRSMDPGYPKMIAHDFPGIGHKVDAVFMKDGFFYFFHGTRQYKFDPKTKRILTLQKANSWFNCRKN

[2] = target: T2, Matrix metalloproteinase-9 (Homo sapiens, UniProt P14780); experiment: Inhibition of Matrix metalloprotease-9 at 10 uM
T2 sequence (P14780 whole entry): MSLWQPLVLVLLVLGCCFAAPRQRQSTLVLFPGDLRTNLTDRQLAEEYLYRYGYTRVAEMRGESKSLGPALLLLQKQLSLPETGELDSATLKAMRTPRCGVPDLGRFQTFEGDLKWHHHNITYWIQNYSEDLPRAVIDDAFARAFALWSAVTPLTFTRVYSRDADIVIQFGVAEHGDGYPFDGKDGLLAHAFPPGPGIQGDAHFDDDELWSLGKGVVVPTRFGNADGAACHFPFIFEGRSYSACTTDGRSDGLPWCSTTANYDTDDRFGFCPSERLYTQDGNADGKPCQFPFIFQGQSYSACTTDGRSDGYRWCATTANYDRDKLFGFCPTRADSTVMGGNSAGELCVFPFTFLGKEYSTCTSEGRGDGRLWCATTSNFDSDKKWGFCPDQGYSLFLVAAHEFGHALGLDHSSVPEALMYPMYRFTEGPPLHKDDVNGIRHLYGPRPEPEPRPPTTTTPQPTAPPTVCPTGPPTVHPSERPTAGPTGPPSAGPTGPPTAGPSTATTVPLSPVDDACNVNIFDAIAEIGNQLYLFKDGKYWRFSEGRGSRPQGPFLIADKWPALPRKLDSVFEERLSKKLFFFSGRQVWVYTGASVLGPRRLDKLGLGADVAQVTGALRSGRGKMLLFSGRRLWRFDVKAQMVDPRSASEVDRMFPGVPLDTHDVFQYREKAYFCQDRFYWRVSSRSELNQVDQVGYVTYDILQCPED

Rattus norvegicus [3] = experiment: Inhibitory activity against MMP-9 in rat dialysis implant bioactivity model at oral dose of 100 mg/kg; In active; format: functional, organism-based; design: dose 100 mg/kg
Collagenase 3 [4] = target: T3, Collagenase 3 (Homo sapiens, UniProt P45452); experiment: Inhibition of Matrix metalloprotease-13 at 0.3 uM
[5] = target: T2, Matrix metalloproteinase-9; experiment: Inhibition of Matrix metalloprotease-9 at 0.3 uM
Collagenase 3 [6] = target: T3, Collagenase 3; experiment: Inhibition of Matrix metalloprotease-13
Interstitial collagenase = target: T4, Interstitial collagenase (Homo sapiens, UniProt P03956); experiment: Inhibition of Matrix metalloprotease-1
T4 sequence (P03956 whole entry): T1 sequence (whole entry)

[7] = target: T2, Matrix metalloproteinase-9; experiment: Inhibition of Matrix metalloprotease-9
Rattus norvegicus [8] = experiment: In vivo inhibitory activity against Matrix metalloprotease-13 in rat dialysis implant bioactivity model at a concentration of 50 mg/kg; Not active; format: functional, organism-based; design: dose 50 mg/kg

SMILES: COc1ccc(S(=O)(=O)N(Cc2ccccc2)c2ccsc2C(=O)NO)cc1
inhibition [1]: 19%
inhibition [2]: 57%

SMILES: COc1ccc(S(=O)(=O)N(Cc2ccccc2)C2CCCC[C@H]2C(=O)NO)cc1 (some centres not stated)
IC50 (Interstitial collagenase): 174 nM
IC50 [7]: 181 nM

SMILES: COc1ccc(S(=O)(=O)N(Cc2ccccc2)c2c(C(=O)NO)cnn2C)cc1
inhibition [1]: 22%
IC50 [7]: 900 nM

SMILES: COc1ccc(S(=O)(=O)N(Cc2ccccc2)[C@H]2CCCC[C@H]2C(=O)NO)cc1
IC50 (Interstitial collagenase): 361 nM
IC50 [7]: 318 nM

SMILES: COc1ccc(S(=O)(=O)N(Cc2ccccc2)c2c(C(=O)NO)cc(OC)nc2OC)cc1
Activity (Rattus norvegicus [8]): inactive

SMILES: COc1ccc(S(=O)(=O)N(Cc2ccccc2)c2cscc2C(=O)NO)cc1
inhibition [1]: 40%
inhibition [2]: 67%

Now from value to compound, other results behind:

inhibition [1]: 50%
SMILES: COc1ccc(S(=O)(=O)N(Cc2cccnc2)c2c(C(=O)NO)csc2Br)cc1
Activity (Rattus norvegicus [3]): inactive

inhibition [1]: 49%
inhibition (Collagenase 3 [4]): 35%
inhibition [5]: 38%
SMILES: C#Cc1scc(C(=O)NO)c1N(Cc1ccccc1)S(=O)(=O)c1ccc(OC)cc1

IC50 (Collagenase 3 [6]): 427 nM
SMILES: COc1ccc(S(=O)(=O)N(Cc2ccccc2)c2c(C(=O)NO)csc2Br)cc1
